“Also recorded” adds a separate entry of the source.
Tests used:
[1] = biological target: T1, SIN3A occupancy at the Homer1 promoter (Mus musculus, UniProt Q60520); test: ChIP-qPCR of SIN3A at Homer1 in mouse frontal cortex; type: in vivo
T1 construct: from tissue; host or cells: mouse frontal cortex (C57BL/6N, treated in vivo)
Procedure: ChIP assays were performed using the MAGnify ChIP system (ThermoFisher, MA) according to the manufacturer's protocol with a few modifications. A small section (50 mg) of the frontal cortex (FC) was used. Chromatin was sheared with the Covaris® S2 system (Covaris, Woburn, MA) using the following program: duty cycle 5%, intensity 2, 200 cycles per burst, 60 s cycle per time, 20 cycles, temperature 4° C. A volume of 10 μL chromatin was used per sample. A total of 0.5 μg of the anti-H3 antibody (PA5 16183, Invitrogen, Carlsbad, CA), 1 μg of the anti-SIN3A antibody (ab3479, Abcam, Cambridge, MA) or anti-IgG (ab37355, Abcam) was used per sample. Quantitative real-time PCR analysis was performed following magnetic bead-based DNA purification. The DNA samples were amplified in quadruplicate reactions as previously described [Ibi et al 2017] using the QuantStudio 6 Flex Real-Time PCR System (Applied Biosystems) using the PowerUP SYBR Green Master Mix (Applied Biosystems). All primers for ChIP-qPCR are described in FIG. 34.

[2] = tested on: Rpd3L HDAC binary PPIs other than Sin3-Ume6; test: GPCA binary PPI inhibition, other Rpd3L HDAC PPIs; type: cell-based, S. cerevisiae; settings: 10 μM
Procedure: GPCA (N1-N2 version) was implemented as reported in [Choi et al 2019]. HEK293T cells were seeded at 6×10^4 cells per well in 96-well, flat-bottom, cell culture microplates (Greiner Bio-One, #655083), and cultured in Dulbecco's modified Eagle's medium (DMEM) supplemented with 10% fetal calf serum at 37° C. and 5% CO2. Twenty-four hours later, cells were transfected with 100 ng of each GPCA plasmid (GPCA-N1 and GPCA-N2) using linear polyethylenimine (PEI) to co-express the protein pairs fused with complementary luciferase fragments, Luc1 and Luc2. The DNA/PEI ratio used for transfection was 1:3 (mass:mass). […] Luminescence was measured by auto-injecting 50 μL Renilla luciferase substrate (Renilla Luciferase Assay system, catalog No. E2820, Promega) per well and integrating light output for 4 s using a TriStar luminometer (Berthold).
The ability of compounds to inhibit binary PPIs in the Sin3/Rpd3L HDAC complex was tested by GPCA in a high-throughput screening format. […] The luminescence signal for each PPI was measured by averaging the different DMSO replicates, and calculating the standard deviation of DMSO values for each interaction. […] For each interaction, a particular compound was scored as a PPI inhibitor when it decreased its luminescence signal by at least three standard deviations compared to the corresponding averaged DMSO value. […]

T1 sequence (Q60520 whole entry): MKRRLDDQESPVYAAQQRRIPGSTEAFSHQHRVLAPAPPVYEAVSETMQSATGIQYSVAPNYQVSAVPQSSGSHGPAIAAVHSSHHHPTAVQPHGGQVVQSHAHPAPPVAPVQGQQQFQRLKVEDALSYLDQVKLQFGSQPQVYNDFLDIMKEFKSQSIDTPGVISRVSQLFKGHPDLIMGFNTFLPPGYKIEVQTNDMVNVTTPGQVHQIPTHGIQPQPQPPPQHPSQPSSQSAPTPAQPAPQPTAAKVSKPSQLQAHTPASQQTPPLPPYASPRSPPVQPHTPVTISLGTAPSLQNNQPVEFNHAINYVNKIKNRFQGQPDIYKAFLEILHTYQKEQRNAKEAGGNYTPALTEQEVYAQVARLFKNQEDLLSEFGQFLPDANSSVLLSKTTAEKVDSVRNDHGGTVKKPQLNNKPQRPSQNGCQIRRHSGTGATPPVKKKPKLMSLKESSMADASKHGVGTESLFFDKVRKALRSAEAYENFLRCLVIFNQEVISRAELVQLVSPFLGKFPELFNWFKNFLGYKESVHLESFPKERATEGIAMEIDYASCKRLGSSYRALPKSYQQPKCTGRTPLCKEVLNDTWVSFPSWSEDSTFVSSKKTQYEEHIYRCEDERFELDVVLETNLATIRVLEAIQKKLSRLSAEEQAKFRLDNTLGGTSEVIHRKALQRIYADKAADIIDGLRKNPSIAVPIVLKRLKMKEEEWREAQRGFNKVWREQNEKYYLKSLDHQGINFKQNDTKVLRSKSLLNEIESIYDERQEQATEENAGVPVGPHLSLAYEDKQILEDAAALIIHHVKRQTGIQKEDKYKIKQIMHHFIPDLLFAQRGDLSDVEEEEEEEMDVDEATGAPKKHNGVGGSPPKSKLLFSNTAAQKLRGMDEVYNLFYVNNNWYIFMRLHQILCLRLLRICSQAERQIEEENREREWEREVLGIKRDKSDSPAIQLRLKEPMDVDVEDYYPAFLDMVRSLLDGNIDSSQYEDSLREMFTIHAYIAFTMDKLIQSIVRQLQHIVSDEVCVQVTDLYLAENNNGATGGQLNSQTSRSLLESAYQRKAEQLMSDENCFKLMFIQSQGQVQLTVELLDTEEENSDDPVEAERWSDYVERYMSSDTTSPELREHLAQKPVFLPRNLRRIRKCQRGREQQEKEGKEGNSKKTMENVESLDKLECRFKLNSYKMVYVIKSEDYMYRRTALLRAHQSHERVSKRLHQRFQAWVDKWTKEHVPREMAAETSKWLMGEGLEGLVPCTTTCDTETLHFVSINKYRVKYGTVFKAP

SMILES | recruitment of SIN3A at Homer1 promoter ([1]; HDAC2 cKO mice) | recruitment of SIN3A at Homer1 promoter ([1]; WT mice, chronic 50 mg/kg, vs vehicle) | effect on all other PPIs [2]
C[C@@H](NC(=O)c1c(O)n2ccccc2nc1=O)c1ccccc1 [E6R, 4-hydroxy-2-oxo-N—((R)-1-phenylethyl)-3,4-dihydro-2H-pyrido[, 2-a]pyrimidine-3-carboxamide] | not observed | significantly reduced recruitment; also recorded: significantly reduces | 
CC(NC(=O)c1c(O)n2ccccc2nc1=O)c1ccccc1 (racemic) [E6] |  |  | unperturbed

Reference: patent US20240299393A1, “SMALL MOLECULE DISRUPTORS OF PROTEIN INTERACTIONS IN HISTONE DEACETYLASE COMPLEXES” (Dana-Farber Cancer Institute, Inc., priority 2021, published 2024)
